Measurements as given in article PMC4298791 (Angewandte Chemie (International Ed. in English), 2014).
Like-named read-outs stand apart in the source and are kept apart here. Each block holds one compound with its values, some of them ahead of it.

Columns and labels:
CREBBP bromodomain [1] = molecular target: T1, CREBBP bromodomain (Homo sapiens, UniProt Q92793); test: AlphaScreen peptide displacement assay; type: binding
T1 construct: amplify the bromodomain region of the; made in house
Method: AlphaScreen Peptide Displacement Assay: Bromodomain AlphaScreen assays were carried out as
previously described.11,34 All experiments were carried out in duplicate and, within a table, on the same plate. […]

PB1(1) = PB1(1) (Homo sapiens, UniProt Q86U86); test: Differential scanning fluorimetry (ΔTm); details: read-out: ΔTm PB1(1)
Method: (§7) Differential Scanning Fluorimetry: Bromodomain ΔTm assay was performed as reported previously,34 with protein at a final concentration of 2 µM and compound at 10 µM.

LOC93349A = LOC93349A (Homo sapiens, UniProt Q9H930); test: Differential scanning fluorimetry (ΔTm); details: read-out: ΔTm LOC93349A
Method: as §7

CREBBP bromodomain [2] = molecular target: T1, CREBBP bromodomain; test: Isothermal titration calorimetry (ITC); type: binding; details: 15 °C
Method: (§1) Isothermal Titration Calorimetry (ITC): Experiments were carried out on a VP-ITC titration microcalorimeter from MicroCal™ , LLC (Northampton, MA) with a cell volume of 1.4189 ml and a 250 µl microsyringe equipped with a ThermoVac module.
(§2) The microsyringe was loaded with a solution of the protein sample (200-500 µM protein in ITC buffer) and was carefully inserted into the calorimetric cell which was filled with an amount of the ligand ([…], 20-30 µM in ITC buffer). The system […]
(§3) applied. All titrations were conducted using an initial control injection of 2 µl followed by up to 34 identical injections of 8 µl with a duration of 4 sec per injection and a spacing of 250 sec between injections. The titration experiments were designed in such a fashion, as to ensure complete saturation of the enzymes before […]
(§4) corrected for protein heats of dilution (measured on separate experiments by titrating the proteins into ITC buffer) and deconvoluted using the MicroCal™ Origin software supplied with the instrument to yield enthalpies of binding (∆H) and binding constants (KB) in the same fashion to that previously described in detail by Wiseman and coworkers.35 Thermodynamic parameters were calculated using the basic equation of thermodynamics (∆G = ∆H − T∆S = −RTlnKB, where ∆G, ∆H and ∆S are the changes in free energy, enthalpy […]
(§5) and entropy of binding respectively).
(§6) MicroCal™ Origin software package.

BRD4(1) = BRD4(1) (Homo sapiens, UniProt O60885); test: Isothermal titration calorimetry (ITC); type: binding; details: 15 °C
Method: as §1, §2, §3, §4, §5, §6

BRD9 = molecular target: T2, BRD9 (Homo sapiens, UniProt Q9H8M2); test: Differential scanning fluorimetry (ΔTm); details: read-out: ΔTm BRD9
T2 sequence (Q9H8M2 136-240 limits assumed): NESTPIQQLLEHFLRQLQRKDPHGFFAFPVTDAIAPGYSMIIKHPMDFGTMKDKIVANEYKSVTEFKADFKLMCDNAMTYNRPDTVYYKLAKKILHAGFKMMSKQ

BAZ2B = molecular target: T3, BAZ2B (Homo sapiens, UniProt Q9UIF8); test: Differential scanning fluorimetry (ΔTm); details: read-out: ΔTm BAZ2B
T3 sequence (Q9UIF8 2060-2164 limits assumed): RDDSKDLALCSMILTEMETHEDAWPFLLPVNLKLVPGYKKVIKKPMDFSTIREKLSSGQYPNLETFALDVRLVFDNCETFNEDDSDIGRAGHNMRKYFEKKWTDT

CREBBP = molecular target: T4, CREBBP (Homo sapiens, UniProt Q92793); test: Differential scanning fluorimetry (ΔTm); type: binding; details: DSF; protein 2 µM, compound 10 µM
T4 construct: amplify the bromodomain region of the; made in house

PCAF = molecular target: T5, PCAF (Homo sapiens, UniProt Q92831); test: Differential scanning fluorimetry (ΔTm); details: read-out: ΔTm PCAF
T5 sequence (Q92831 723-827 limits assumed): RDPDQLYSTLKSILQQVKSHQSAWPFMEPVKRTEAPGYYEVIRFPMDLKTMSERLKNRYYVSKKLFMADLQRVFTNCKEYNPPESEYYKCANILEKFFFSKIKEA

TIF1α = molecular target: T6, TIF1α (Homo sapiens, UniProt O15164); test: Differential scanning fluorimetry (ΔTm); details: read-out: ΔTm TIF1α
T6 sequence (O15164 899-1004 limits assumed): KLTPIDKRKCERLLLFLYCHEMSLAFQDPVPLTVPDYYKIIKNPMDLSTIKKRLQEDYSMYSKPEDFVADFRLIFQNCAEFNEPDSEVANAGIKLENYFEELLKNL

[3] = tested on: GFP chimerized to multimerized CREBBP bromodomains in U2OS cells; test: Fluorescence recovery after photobleaching (FRAP) assay; type: cell-based
Method: To determine the utility of (R)-2 in a cellular setting a FRAP assay was conducted.
The bleached area is indicated by a red circle. B) Half times of fluorescence recovery (t1/2) of U2OS cells expressing green fluorescent protein (GFP) chimerized to multimerized CREBBP bromodomains with or without 2.5 μM SAHA (indicated by †).
CREBBP bromodomain from chromatin. A) Time dependence of fluorescent recovery in the bleached area of U2OS cells expressing GFP chimerised to multimerised CREBBP bromodomains. Curves represent the means at each time point of 15 cells in each group (see Figure 3A for representative images of cell nuclei). B) Half times of fluorescence recovery (t½) of cells expressing GFP chimerised to multimerised CREBBP bromodomains. Bars represent the mean t½ calculated from individual recovery curves of 15 cells per group. * […]
as §5
MicroCal™ Origin software package. […]
crystallization robot (TTP Labtech, Royston UK).
50+100 nl). […] All crystallizations were carried out […]
followed by manual building in COOT42.

BRPF3 = molecular target: T7, BRPF3 (Homo sapiens, UniProt Q9ULD4); test: Differential scanning fluorimetry (ΔTm); details: read-out: ΔTm BRPF3
T7 sequence (Q9ULD4 589-693 limits assumed): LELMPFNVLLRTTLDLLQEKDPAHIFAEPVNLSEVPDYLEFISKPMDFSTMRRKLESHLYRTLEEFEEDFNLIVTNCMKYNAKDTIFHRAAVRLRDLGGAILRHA

CREBBP bromodomain [4] = molecular target: T1, CREBBP bromodomain; parameters: method as in PMID 21804994, PMID 21851057; details: cited from earlier work
[5] = peptide and protein concentration = 25 nM, range in parentheses, read-out: IC50/nM vs CREBBP

T1 sequence (Q92793 1085-1192 limits assumed): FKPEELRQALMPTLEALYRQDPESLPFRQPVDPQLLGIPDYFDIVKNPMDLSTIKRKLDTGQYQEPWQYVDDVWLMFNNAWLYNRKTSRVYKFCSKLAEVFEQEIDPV
Chain of PB1(1) (Q86U86 41-151 limits assumed): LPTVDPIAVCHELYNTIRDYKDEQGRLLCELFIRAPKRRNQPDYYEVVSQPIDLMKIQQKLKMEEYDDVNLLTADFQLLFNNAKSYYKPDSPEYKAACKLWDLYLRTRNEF
T4 sequence (Q92793 1085-1192 limits assumed): as the sequence (Q92793 1085-1192 limits assumed) above
Chain of LOC93349A (Q9H930 467-570 limits assumed): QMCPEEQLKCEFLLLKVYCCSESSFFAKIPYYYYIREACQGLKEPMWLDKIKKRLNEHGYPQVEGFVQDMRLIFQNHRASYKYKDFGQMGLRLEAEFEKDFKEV

Compound: COc1ccc2c(c1)N(CCCNC(=O)c1cc(F)cc3c1N[C@H](C)C(=O)N3)CCC2 [(R)-7]
IC50 (CREBBP bromodomain [1]; [5]): 1530 nM

Compound: COc1ccc2c(c1)N(CCCNC(=O)c1c(F)ccc3c1N[C@H](C)C(=O)N3)CCC2 [(R)-8]
IC50 (CREBBP bromodomain [1]; [5]): 2550 nM

Compound: CN1CCCC1=O [N-methyl-2-pyrrolidone (NMP), N-methyl-2-pyrrolidone]
IC50 (CREBBP bromodomain [4]; AlphaScreen): 1900 µM
ligand efficiency (CREBBP bromodomain [4]; from AlphaScreen IC50 vs CREBBP bromodomain): 0.54

Compound: CC1Oc2c(cccc2C(=O)NCCN2CCc3ccccc32)NC1=O (stereo not shown) [compound 3]
IC50 (CREBBP bromodomain [1]; read-out: CREBBP IC50): 77000 nM

Further lines, with some results ahead:

IC50 (CREBBP bromodomain [1]; [5]): 758 nM
IC50 (CREBBP bromodomain [1]; read-out: CREBBP IC50): 760 nM
Compound: C[C@H]1Nc2c(cccc2C(=O)NCCCN2CCCc3ccccc32)NC1=O [(R)-1]

ΔTm at 10 µM (PB1(1)): < 0.1 °C
ΔTm at 10 µM (LOC93349A): 0.3 °C
TΔS of binding to CREBBP (CREBBP bromodomain [2]): -2.40 kcal/mol
ΔH of binding to CREBBP (CREBBP bromodomain [2]; error = error in fitting): -6.12 ± 0.04 kcal/mol
−TΔS of binding to BRD4 (BRD4(1)): -1.36 kcal/mol
ΔH of binding to BRD4 (BRD4(1); error = error in fitting): -6.42 ± 0.12 kcal/mol
ΔTm at 10 µM (BRD9): < 1.1 °C
ΔTm at 10 µM (BAZ2B): < 0.5 °C
ΔTm at 10 µM (CREBBP): 5.4 °C
ΔTm at 10 µM (PCAF): 0 °C
ΔTm at 10 µM (TIF1α): 0.7 °C
ΔTm at 10 µM (BRPF3): 0.5 °C
Compound: COc1ccc2c(c1)N(CCCNC(=O)c1cccc3c1N[C@H](C)C(=O)N3)CCC2 [(R)-2]
half time of fluorescence recovery (t1/2) compared to wild-type cells ([3]; 1, 5, 10 µM (R)-2 in presence of 2.5 μM SAHA): dose-dependently reduced
displacement of CREBBP bromodomain from chromatin (FRAP) ([3]; 1, 5, 10 µM, with 2.5 μM SAHA): can displace the CREBBP bromodomain from chromatin

IC50 (CREBBP bromodomain [1]; [5]): 549 nM
Compound: C[C@H]1Nc2c(cccc2C(=O)NCCCN2CCOc3ccccc32)NC1=O [(R)-5]

IC50 (CREBBP bromodomain [1]; [5]): 1410 nM
Compound: COc1ccc2c(c1)CCCN2CCCNC(=O)c1cccc2c1N[C@H](C)C(=O)N2 [(R)-6]

IC50 (CREBBP bromodomain [1]; [5]): 6870 nM
Compound: C[C@@H]1Nc2c(cccc2C(=O)NCCCN2CCCc3ccccc32)NC1=O [(S)-1]

IC50 (CREBBP bromodomain [1]; read-out: CREBBP IC50): 51000 nM
Compound: CC1Oc2c(cccc2C(=O)NCCCN2CCCc3ccccc32)NC1=O (stereo not shown) [compound 4]
